The values that follow come from paper PMC12040169 (PLOS Biology, 2025).

What is called viability is a read-out of living cells in per cent, often relative to untreated cells.

The structures appear in SMILES notation.

The data set can be described thus: in vitro. To be noted: human, hela cells, % viability.

For `CN(C)S(=O)(=O)N(CC(=O)N1CCN(Cc2ccccc2)CC1)c1ccccc1` [CBK268423], the viability at 28.5 h, 10 µM came out at 112%. Take `Cn1c(Cc2ccc(Cl)cc2)nnc1SCc1nc2ccccc2c(=O)n1-c1cccc(C(F)(F)F)c1` [CBK268425]: the viability at 28.5 h, 10 µM was determined as 112%.

`CN(C)CCNC(=O)CSc1ccccc1` [CBK268426]: the viability at 28.5 h, 10 µM turned out to be 98.6%. Regarding `O=C(COc1ccc(S(=O)(=O)Nc2ccc(Cl)cc2)cc1)Nc1ccccc1F` [CBK268427], the viability at 28.5 h, 10 µM was 108%. In the case of `COc1ccccc1-c1nnc2sc(-c3cnccn3)nn12` [CBK268428], the viability at 28.5 h, 10 µM was 100%. For the compound `O=C(NCCCc1nc2ccccc2[nH]1)c1ccccc1` [CBK268429], the viability at 28.5 h, 10 µM was 96.9%.

For `COc1ccc(-n2nc([N+](=O)[O-])c(NCc3ccccn3)[n+]2[O-])cc1` [CBK268430], the viability at 28.5 h, 10 µM was 96.3%. The same measure, in the same setting: under `CN1CCN(CC(=O)Nc2sc3c(c2C(=O)Nc2ccccc2)CCCC3)CC1` [CBK268431] stands 117%; under `Cn1c(=O)n(C)c2cc(CNCc3cccnc3)ccc21` [CBK268432C], 99.1%; under `c1ccc2c(c1)OCC(c1nn3c(Cn4cnc5ccccc54)nnc3s1)O2` (stereo not shown) [CBK268436], 81.4%.

Turning to `NC(=O)c1c(NC(=O)c2cnn3cccnc23)sc2c1CCCC2` [CBK268437], the viability at 28.5 h, 10 µM came out at 87.8%. For `CN(C)c1ccc(/C=C/c2noc(-c3ccccc3O)n2)cc1` [CBK268438], the viability at 28.5 h, 10 µM is 109%. Same read-out and setting: under `COc1ccc(NS(=O)(=O)c2ccc3c(c2)oc(=O)c2cc(S(=O)(=O)Nc4ccc(OC)cc4)ccc23)cc1` [CBK268439] stands 104%; under `COCCNC(=O)CC1Sc2ccccc2NC1=O` (stereo not shown) [CBK268443], 98.9%; under `COc1ccc(S(=O)(=O)N(CC(=O)Nc2cccnc2)c2ccc(F)cc2)cc1` [CBK268445], 86.5%. Still for that read-out and setting: then `c1ccc(OCc2nn3c(Cn4cnc5ccccc54)nnc3s2)cc1` [CBK268446], with 99.2%; and `CS(=O)(=O)N(CC(=O)NCc1ccccn1)c1ccc(C23CC4CC(CC(C4)C2)C3)cc1` [CBK268448], with 106%. On to `O=C(CN1CCC(Cc2ccccc2)CC1)Nc1ccc(S(=O)(=O)N2CCOCC2)cc1` [CBK268451], for which the viability at 28.5 h, 10 µM came to 102%. Take `O=C(CSc1nnc(-c2cccs2)n1-c1ccccc1)c1c[nH]c2ccccc12` [CBK268452]: the viability at 28.5 h, 10 µM was 101%. Same read-out and setting: under `Cn1c(CCNC(=O)NC2CCCCC2)nc2cc([N+](=O)[O-])ccc21` [CBK268453] stands 95.7%. For `COc1cc2nc(S)n(CCc3ccc(S(N)(=O)=O)cc3)c(=O)c2cc1OC` [CBK268457], the viability at 28.5 h, 10 µM was 84.4%. `CC(=O)NCCc1ccc(S(=O)(=O)N2CCN(Cc3ccccc3)CC2)cc1` [CBK268458]: the viability at 28.5 h, 10 µM came out at 94.8%. Turning to `COc1ccc(S(=O)(=O)N(C)CC(=O)O)c2ccccc12` [CBK268459], the viability at 28.5 h, 10 µM came to 105%. In the case of `CCN1CCN(C(=O)CN(CC)S(=O)(=O)c2ccc(Cl)cc2)CC1` [CBK268461], the viability at 28.5 h, 10 µM is 88.4%.

In the case of `COc1ccc(OC)c(NC(=O)CN2CCC(C(N)=O)(N3CCCCC3)CC2)c1` [CBK268462], the viability at 28.5 h, 10 µM amounted to 98.2%. As for `Nn1c(COc2ccccc2)nnc1SCC(=O)c1ccc2c(c1)CCCC2` [CBK268466], the viability at 28.5 h, 10 µM turned out to be 100%. Still for that read-out and setting: then `N#Cc1c(NC(=S)NC(=O)c2ccc(-c3cccc([N+](=O)[O-])c3)o2)sc2c1CCCC2` [CBK268471], with 92%. On the same count and under the same terms, under `O=C(CSCc1nc2ccccc2[nH]1)Nc1cccc(C(F)(F)F)c1` [CBK268474] stands 101%; under `O=C(Cc1cccc2ccccc12)Nc1cc(C(=O)O)cc(C(=O)O)c1` [CBK268475], 94.4%. On the same count and under the same terms, under `COc1ccc(S(=O)(=O)NCCSCc2cccc(C)c2)cc1Cl` [CBK268477] stands 100%. On to `CC(=O)NCCc1nc2cc(NC(=O)c3cccc([N+](=O)[O-])c3)ccc2n1C` [CBK268478], for which the viability at 28.5 h, 10 µM was found to be 90.7%. Consider `Cc1ccc(Cl)cc1NC(=O)c1cc(NC(=O)C2CC=CCC2C(=O)O)ccc1N1CCOCC1` (stereo not shown) [CBK268479], for which the viability at 28.5 h, 10 µM worked out at 99.1%. The same measure, in the same setting: under `CN(C)S(=O)(=O)N(CC(=O)Nc1ccc2c(c1)OCO2)c1ccccc1` [CBK268481] stands 110%.

As for `Cc1cc(C)n(-c2nc3cc(Cl)ccc3nc2NCc2ccc3c(c2)OCO3)n1` [CBK268482], the viability at 28.5 h, 10 µM was 106%. As to `N=c1c2c(-c3ccccc3)c(-c3ccccc3)oc2ncn1CCCN1CCOCC1` [CBK268484], the viability at 28.5 h, 10 µM is 92.6%.

With `Cc1ccc(NC(=O)CCCn2cc([N+](=O)[O-])cn2)cc1Cl` [CBK268485], the viability at 28.5 h, 10 µM came to 76.6%. Still for that read-out and setting: then `CN1CCN(c2ccccc2NC(=O)c2ccc3ccccc3c2)CC1` [CBK268486], with 96.1%; and `CS(=O)(=O)N1CCc2cc(S(=O)(=O)NCCc3c[nH]c4ccccc34)ccc21` [CBK268487], with 101%; and `NC(=O)C1(N2CCCCC2)CCN(CC(=O)Nc2ccccc2Sc2ccccc2)CC1` [CBK268488], with 94.7%.

For the compound `Cc1c(C(N)=O)sc2ncn(CCc3ccccc3)c(=O)c12` [CBK268492], the viability at 28.5 h, 10 µM worked out at 103%.

Regarding `Cc1ccc(-c2noc(CSc3nnc(CCc4ccccc4)n3-c3ccccc3)n2)cc1` [CBK268493], the viability at 28.5 h, 10 µM is 93.1%.

On to `CS(=O)(=O)Nc1ccccc1C(=O)NCc1ccccn1` [CBK268494], for which the viability at 28.5 h, 10 µM came out at 106%. The same measure, in the same setting: under `CC1CCCCN1S(=O)(=O)c1ccc(NC(=O)CCn2cnc3ccccc3c2=O)cc1` (stereo not shown) [CBK268495] stands 95.5%; under `O=C(CSc1nc2sc3c(c2c(=O)n1Cc1ccco1)CCC3)NCc1ccco1` [CBK268499], 101%; under `O=C(CSCc1cccc2ccccc12)Nc1c[nH]c(=O)[nH]c1=O` [CBK268500], 103%. Take `Cc1ccc(Cl)cc1NC(=O)c1cc([N+](=O)[O-])ccc1NCCN1C(=O)c2ccccc2C1=O` [CBK268501]: the viability at 28.5 h, 10 µM amounted to 99.5%. Take `COc1ccc(C)cc1S(=O)(=O)N1CCCC(C(=O)NCc2ccccn2)C1` (stereo not shown) [CBK268503]: the viability at 28.5 h, 10 µM was 102%. In the case of `COc1ccc(S(=O)(=O)N(CCc2ccccc2)CC(=O)O)cc1C` [CBK268505], the viability at 28.5 h, 10 µM came to 95%.

For the compound `O=C(CSCc1ccc(Br)cc1)NCC1CCCO1` (stereo not shown) [CBK268506], the viability at 28.5 h, 10 µM came out at 87.3%. As to `COC(=O)c1cc(OC)c(OC)cc1NC(=S)N1CCC(C(N)=O)CC1` [CBK268507], the viability at 28.5 h, 10 µM was found to be 93.3%. Turning to `Cc1cc(C)n(-c2nc3ccccc3nc2N2CCN(S(=O)(=O)c3ccc(F)c(C)c3)CC2)n1` [CBK268508], the viability at 28.5 h, 10 µM was found to be 91.1%.

With `CSc1ccc(S(=O)(=O)NCCSCc2ccc(C)cc2)cc1` [CBK268510], the viability at 28.5 h, 10 µM stood at 104%.

On to `Cn1c(CCNC(=O)c2cccs2)nc2cc([N+](=O)[O-])ccc21` [CBK268511], for which the viability at 28.5 h, 10 µM was determined as 83%.

As to `O=[N+]([O-])c1ccc2c(c1)oc1ccc(S(=O)(=O)N3CCCC3)cc12` [CBK268512], the viability at 28.5 h, 10 µM was 107%. In the case of `CCOc1cc(CNCc2ccccn2)cc(Cl)c1OCC` [CBK268516C], the viability at 28.5 h, 10 µM was 106%. As for `Cc1ccc(S(=O)(=O)NCCSc2nc(-c3ccc([N+](=O)[O-])cc3)c[nH]2)cc1` [CBK268518], the viability at 28.5 h, 10 µM stood at 97%. With `Cc1ccc(C(C)C)c(OCC(=O)N2CCN(Cc3nc4cc([N+](=O)[O-])ccc4n3C)CC2)c1` [CBK268519], the viability at 28.5 h, 10 µM came to 106%. The same measure, in the same setting: then `CN1CCN(c2ccccc2NC(=S)NC(=O)c2ccc(N3CCCCC3)c([N+](=O)[O-])c2)CC1` [CBK268520C], with 121%. On to `Cc1ccc(NS(=O)(=O)c2cc(C(=O)N3CCN(Cc4ccc5c(c4)OCO5)CC3)ccc2C)cc1` [CBK268521], for which the viability at 28.5 h, 10 µM amounted to 102%. With `Cc1ccc2nc(-c3ccccc3)cc(C(=O)NCCCn3ccnc3)c2c1` [CBK268526], the viability at 28.5 h, 10 µM was 96.1%.

In the case of `CC(=O)Nc1c(O)nc(SCC(=O)Nc2ccc(C(C)=O)cc2)[nH]c1=O` [CBK268527], the viability at 28.5 h, 10 µM was determined as 106%. Take `CC1CCCCN1S(=O)(=O)c1ccc(NCCC(=O)c2ccc(Cl)cc2)cc1` (stereo not shown) [CBK268529]: the viability at 28.5 h, 10 µM came out at 113%. In the case of `Cc1cc(NS(=O)(=O)c2ccc(OCCNS(C)(=O)=O)cc2)no1` [CBK268530], the viability at 28.5 h, 10 µM is 102%.

As to `O=C(COc1ccc(S(=O)(=O)N2CCOCC2)cc1)NCc1ccccc1` [CBK268533], the viability at 28.5 h, 10 µM stood at 98.6%. Consider `Cc1cc(C)n2nc(SCC(=O)O)nc2n1` [CBK268536], for which the viability at 28.5 h, 10 µM was found to be 111%.

Turning to `O=C1c2ccccc2C(=O)N1CCCc1nc2c3c4c(sc3ncn2n1)CCCCC4` [CBK268540], the viability at 28.5 h, 10 µM came to 93.4%. Take `COc1cc(C(CC(=O)O)C(=O)O)c([N+](=O)[O-])cc1OC` (stereo not shown) [CBK268541]: the viability at 28.5 h, 10 µM stood at 96.9%. As to `O=C(CSCc1ccc(Cl)c(Cl)c1)Nc1cccnc1` [CBK268542], the viability at 28.5 h, 10 µM is 112%. As to `O=C(CSCc1ccc(Br)cc1)Nc1cccnc1` [CBK268543], the viability at 28.5 h, 10 µM was found to be 104%. Still for that read-out and setting: then `N=c1c2c(-c3ccccc3)c(-c3ccccc3)n(Cc3ccco3)c2ncn1CCN1CCOCC1` [CBK268545], with 93.5%; and `Cc1ccc(-c2nc3ncccc3o2)cc1NC(=O)c1ccc(-c2cccc([N+](=O)[O-])c2)o1` [CBK268548], with 90.7%; and `CCCCNS(=O)(=O)c1ccc(OCC(=O)O)cc1` [CBK268550], with 99.1%. Consider `COc1cc(C2C3=C(CC(C)(C)CC3=O)Nc3ncnn32)ccc1OCC(=O)N1CCOCC1` (stereo not shown) [CBK268551], for which the viability at 28.5 h, 10 µM stood at 102%. In the case of `COC(=O)CC1(CC(=O)OC)C(=O)N(C)C(=O)N(C)C1=O` [CBK268554], under “bulk resorufin, single well”, the viability at 28.5 h, 10 µM was found to be 98.5%. On to `O=C(O)CSc1nnc2n(-c3ccccc3)c3ccccc3n12` [CBK268557], for which the viability at 28.5 h, 10 µM was 106%.

On to `CCc1c(C)nc(N)nc1N1N=C1SC(C(C)=O)C(C)=O` [CBK268558], for which the viability at 28.5 h, 10 µM stood at 99.4%.
